This passage reports Activity results from ChEMBL document CHEMBL2074180, “Human P-glycoprotein transports cyclosporin A and FK506” (J Biol Chem, 1993).

This data set addresses ATP-dependent translocase ABCB1 (Homo sapiens, UniProt P08183). As to the kind of experiment: TP_TRANSPORTER: transepithelial transport of tacrolimus (basal to apical) (Tacrolimus: 6.2 uM) in MDR1-expressing LLC-PK1 cells. It is filed as functional, cell-based. The note with it: pig, llc-pk1, 6.2 µM.

Structures are written as SMILES.

Chain of ATP-dependent translocase ABCB1 (P08183 whole entry): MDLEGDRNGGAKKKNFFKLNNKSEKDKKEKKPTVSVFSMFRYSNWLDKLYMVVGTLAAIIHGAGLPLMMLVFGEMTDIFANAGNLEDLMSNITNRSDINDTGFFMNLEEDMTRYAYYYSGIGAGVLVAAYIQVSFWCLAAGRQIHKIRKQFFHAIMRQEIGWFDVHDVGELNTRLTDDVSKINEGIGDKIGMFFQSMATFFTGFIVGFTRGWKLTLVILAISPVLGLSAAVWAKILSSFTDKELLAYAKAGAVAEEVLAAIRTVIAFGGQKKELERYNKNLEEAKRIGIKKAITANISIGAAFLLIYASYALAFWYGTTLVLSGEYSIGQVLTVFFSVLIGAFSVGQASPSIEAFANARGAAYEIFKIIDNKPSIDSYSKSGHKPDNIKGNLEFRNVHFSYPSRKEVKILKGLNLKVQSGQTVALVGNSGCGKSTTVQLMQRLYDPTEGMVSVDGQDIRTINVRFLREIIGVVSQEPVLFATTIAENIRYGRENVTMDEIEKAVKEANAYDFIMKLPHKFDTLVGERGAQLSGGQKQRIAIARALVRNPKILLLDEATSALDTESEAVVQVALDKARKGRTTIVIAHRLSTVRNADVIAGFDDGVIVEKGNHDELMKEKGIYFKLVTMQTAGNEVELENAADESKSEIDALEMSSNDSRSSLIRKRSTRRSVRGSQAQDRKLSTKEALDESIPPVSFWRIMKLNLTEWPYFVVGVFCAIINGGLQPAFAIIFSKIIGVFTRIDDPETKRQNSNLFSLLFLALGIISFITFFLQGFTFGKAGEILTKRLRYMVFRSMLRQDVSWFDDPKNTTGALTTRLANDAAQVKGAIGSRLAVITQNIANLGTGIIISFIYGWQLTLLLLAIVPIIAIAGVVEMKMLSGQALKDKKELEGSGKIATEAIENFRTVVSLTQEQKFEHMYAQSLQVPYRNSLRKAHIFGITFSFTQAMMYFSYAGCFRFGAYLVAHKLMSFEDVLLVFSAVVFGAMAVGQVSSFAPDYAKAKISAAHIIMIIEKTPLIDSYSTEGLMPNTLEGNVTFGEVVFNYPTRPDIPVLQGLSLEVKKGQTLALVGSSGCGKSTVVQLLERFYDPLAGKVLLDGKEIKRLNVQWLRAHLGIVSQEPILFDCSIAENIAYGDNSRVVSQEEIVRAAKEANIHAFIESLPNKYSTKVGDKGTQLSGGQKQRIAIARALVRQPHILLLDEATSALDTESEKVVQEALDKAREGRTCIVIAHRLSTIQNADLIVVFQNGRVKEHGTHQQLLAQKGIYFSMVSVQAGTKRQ

Turning to `C=CC[C@@H]1/C=C(\C)C[C@H](C)C[C@H](OC)[C@H]2O[C@@](O)(C(=O)C(=O)N3CCCC[C@H]3C(=O)O[C@H](/C(C)=C/[C@@H]3CC[C@@H](O)[C@H](OC)C3)[C@H](C)[C@@H](O)CC1=O)[C@H](C)C[C@@H]2OC` [TACROLIMUS ANHYDROUS], the Activity entry was “inhibitor [+]”.
